Test results: patent US20230391765A1, “HETEROBIFUNCTIONAL COMPOUNDS AS DEGRADERS OF ENL” (ICAHN SCHOOL OF MEDICINE AT MOUNT SINAI, priority 2020, published 2023)
One block for each compound: values may come before it.

How the values were obtained:
Assay type in all cases: cell-based
ENL [1] = target: T1, ENL (Homo sapiens, UniProt Q03111); test: Western blot of ENL protein levels in MV4; 11 cells; conditions: 11 cells; for effect of proteasome inhibitor MG132 on the ENL degradation induced by the degrader: 1 μM degrader with or without 1 μM MG132 for 6 h; for ENL protein level after long treatment: 1 μM for 48 and 72 h
T1 construct: Cells were lysed and expression of endogenous ENL was assessed by Western blot analysis; host or cells: MV4;11
T1 sequence (Q03111 1-559): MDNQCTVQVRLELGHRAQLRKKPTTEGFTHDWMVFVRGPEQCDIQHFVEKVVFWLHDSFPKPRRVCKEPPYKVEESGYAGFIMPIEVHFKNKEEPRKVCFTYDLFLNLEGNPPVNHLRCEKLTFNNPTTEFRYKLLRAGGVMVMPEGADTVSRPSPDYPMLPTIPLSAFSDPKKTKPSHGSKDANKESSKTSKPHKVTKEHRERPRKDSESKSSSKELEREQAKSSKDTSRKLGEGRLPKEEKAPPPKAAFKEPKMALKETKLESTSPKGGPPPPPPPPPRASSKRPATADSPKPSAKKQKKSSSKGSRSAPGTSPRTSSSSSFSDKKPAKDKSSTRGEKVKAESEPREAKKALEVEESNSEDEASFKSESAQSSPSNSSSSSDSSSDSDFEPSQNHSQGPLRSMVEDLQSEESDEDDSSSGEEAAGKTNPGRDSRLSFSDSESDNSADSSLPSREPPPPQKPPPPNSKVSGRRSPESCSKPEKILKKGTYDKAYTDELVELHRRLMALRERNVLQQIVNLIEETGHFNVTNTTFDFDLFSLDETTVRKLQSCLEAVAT
Method: MV4; 11 cells were treated with DMSO or the indicated compounds (the same panel of ENL degraders as shown in FIG. 4) at 1 μM and 10 μM for 24 h. Cells were lysed and expression of ENL was assessed by Western blot analysis.
DMSO treated cells were used as control.
MV4; 11 cells were treated with LQ076-122, or LQ081-107 at 0.3, 1, 3, 10, and 30 μM for 24 h. DMSO treated cells were used as control. Cells were lysed and expression of ENL and GAS41 was assessed by Western analysis.
MV4; 11 cells were treated with DMSO or the indicated compounds at 1 μM and 10 μM for 6 h. Cells were lysed and expression of endogenous ENL was assessed by Western blot analysis.
Cells were treated with 1 μM of ENL degrader with or without 1 μM proteasome inhibitor MG132 for 6 h.
(§1) ENL degraders were dissolved in DMSO. DMSO with no degraders was used as the control. 1×10^6 leukemia cells were seeded in 5 mL medium. For prescreening of compounds, each test compound was added to the medium at 1 μM and 10 μM. Cells were collected after 24 h treatment. For the concentration-dependent treatment, candidate compounds were added to the medium at a series of concentration as indicated in figures. Cells were collected after 24 h treatment. For the time-course treatment, candidate compounds were added to the medium at a final concentration of 4 μM (MV4; 11 cells) or 8 μM (MOLM13 cells). Cells were collected at the indicated timepoints (in hours: 12, 16, 20, 24 and 36 h).
(§2) After ENL degrader treatment, cells were collected, lysed, and total cell lysates were used for Western blot. The following primary antibodies were used: ENL (Cell Signaling Technology), GAS41 (Santa Cruz), GAPDH (Santa Cruz), β-actin (Sigma). Blots were detected using HRP-conjugated secondary antibodies.

ENL [2] = target: T1, ENL; test: Western blot of ENL protein levels in MOLM13 cells; conditions: for ENL protein level after long treatment: 1 μM for 48 and 72 h
Method: MOLM13 cells were treated with LQ076-122 or LQ081-108 at 0, 0.25, 0.5, 1, 1.5, 2, 2.5, 3, 4 and 8 μM for 24 h.
MOLM13 cells were treated with DMSO or 8 μM of LQ076-122 for 12, 16, 20, 24 and 36 h.
MV4; 11, MOLM13 and Jurkat cells were treated with LQ108-69, LQ108-71, LQ108-72, LQ126-62 and LQ126-63 at 0, 1 nM, 10 nM, 100 nM, 1 μM, and 10 μM doses for 6 h. DMSO was used as negative control.
as §1, §2

[3] = system: ENL-dependent MV4; 11 cells; test: Cell viability (CellTiter-Glo), MV4; 11 cells; conditions: 11 cells, 1.25, 2.5, 5 and 10 μM for 72 h
Method: MV4; 11 (FIG. 13A), MOLM13 (FIG. 13B) and Jurkat (FIG. 13C) cells were seeded at 2×10^5 cells/mL density and treated with DMSO or indicated compounds 0.5, 1, 2 and 4 μM for 72 h. Cell viability was measured using CellTiter-Glo reagent (Promega) and relative cell viability was calculated by normalization to DMSO samples.
(§3) ENL-dependent MV4; 11 cells were seeded at 2×10^5 cells/mL density and treated with DMSO or the indicated compounds at 0, 1.25, 2.5, 5 and 10 μM for 72 h. Cell viability was measured using CellTiter-Glo reagent (Promega) and relative cell viability was calculated by normalization to DMSO samples.
as §3, with “11 and ENL-independent Jurkat” for “11”, “or” for “or the”, “10 nM, 100 nM, 1 μM” for “0, 1.25, 2.5, 5”, “3 days (A) or 6 days (B).” for “72 h.”
MV4; 11 or MOLM13 cells were seeded at 0.2×10^6 cells/mL density. Cells were treated with DMSO or ENL degraders at indicated concentrations. Each treatment was done in triplicates. After 72 h treatment, 100 μL of cell suspension from each treatment was mixed with 25 μL of CellTiter-Glo reagent (Promega) and incubated for 10 min before the luminescence signals were detected on a plate reader.

ENL [4] = target: T1, ENL; test: Western blot of ENL protein levels in Jurkat cells; conditions: for ENL protein level after long treatment: 1 μM for 48 and 72 h
Description: […] DMSO was used as negative control.
as §2

Structure (SMILES): Cc1ncsc1-c1ccc(CNC(=O)[C@@H]2C[C@@H](O)CN2C(=O)[C@@H](NC(=O)C2(F)CC2)C(C)(C)C)c(OCC(=O)NCCCCCCCNC(=O)c2ccc3c(c2)[C@H](NC(=O)c2cc(-c4ccc(C(=O)N(C)C)c(O)c4)on2)CC3)c1 [LQ108-63, 5-(4-(dimethylcarbamoyl)-3-hydroxyphenyl)-N-((R)-6-((7-(2-(2-(((2S,4R)-1-((S)-2-(1-fluorocyclopropane-1-carboxamido)-3,3-dimethylbutanoyl)-4-hydroxypyrrolidine-2-carboxamido)methyl)-5-(4-methylthiazol-5-yl)phenoxy)acetamido)heptyl)carbamoyl)-2,3-dihydro-1H-inden-1-yl)isoxazole-3-carboxamide]
effect of proteasome inhibitor MG132 on the ENL degradation induced by the degrader (ENL [1]): partially blocks the ENL degradation

Structure (SMILES): Cc1ncsc1-c1ccc([C@H](CC(=O)NCCCCCCNC(=O)c2ccc3c(c2)[C@H](NC(=O)c2cc(-c4ccc(C(=O)N(C)C)c(O)c4)on2)CC3)NC(=O)[C@@H]2C[C@@H](O)CN2C(=O)[C@@H](NC(=O)C2(F)CC2)C(C)(C)C)cc1 [LQ108-69, 5-(4-(dimethylcarbamoyl)-3-hydroxyphenyl)-N—((R)-6-((6-((S)-3-((2S,4R)-1-((S)-2-(1-fluorocyclopropane-1-carboxamido)-3,3-dimethylbutanoyl)-4-hydroxypyrrolidine-2-carboxamido)-3-(4-(4-methylthiazol-5-yl)phenyl)propanamido)hexyl)carbamoyl)-2,3-dihydro-1H-inden-1-yl)isoxazole-3-carboxamide]
reduction of ENL protein levels (ENL [2]; 1 nM to 10 μM for 6 h): reduced ENL protein levels in a concentration-dependent manner | ENL protein level after long treatment (ENL [2]): maintained the ENL protein at low levels | suppression of cell growth (relative cell viability) [3]: significantly suppressed MV4; 11 cell growth at low micromolar concentration | reduction of ENL protein levels (ENL [1]; 1 nM to 10 μM for 6 h): reduced ENL protein levels in a concentration-dependent manner | effect of proteasome inhibitor MG132 on the ENL degradation induced by the degrader (ENL [1]): partially blocks the ENL degradation | ENL protein level after long treatment (ENL [1]): maintained the ENL protein at low levels | reduction of ENL protein levels (ENL [4]; 1 nM to 10 μM for 6 h): reduced ENL protein levels in a concentration-dependent manner | ENL protein level after long treatment (ENL [4]): maintained the ENL protein at low levels

Structure (SMILES): Cc1ncsc1-c1ccc([C@H](CC(=O)NCCCCCCCNC(=O)c2ccc3c(c2)[C@H](NC(=O)c2cc(-c4ccc(C(=O)N(C)C)c(O)c4)on2)CC3)NC(=O)[C@@H]2C[C@@H](O)CN2C(=O)[C@@H](NC(=O)C2(F)CC2)C(C)(C)C)cc1 [LQ108-70, 5-(4-(dimethylcarbamoyl)-3-hydroxyphenyl)-N—((R)-6-((7-((S)-3-((2S,4R)-1-((S)-2-(1-fluorocyclopropane-1-carboxamido)-3,3-dimethylbutanoyl)-4-hydroxypyrrolidine-2-carboxamido)-3-(4-(4-methylthiazol-5-yl)phenyl)propanamido)heptyl)carbamoyl)-2,3-dihydro-1H-inden-1-yl)isoxazole-3-carboxamide]
ENL protein level after long treatment (ENL [2]): maintained the ENL protein at low levels | suppression of cell growth (relative cell viability) [3]: significantly suppressed MV4; 11 cell growth at low micromolar concentration | effect of proteasome inhibitor MG132 on the ENL degradation induced by the degrader (ENL [1]): partially blocks the ENL degradation | ENL protein level after long treatment (ENL [1]): maintained the ENL protein at low levels | ENL protein level after long treatment (ENL [4]): maintained the ENL protein at low levels

More lines, now with the values ahead:

reduction of ENL protein levels (ENL [1]; 10 μM, 24 h): effective in reducing ENL protein levels
Structure (SMILES): Cn1ncc2cc(C(=O)Nc3ccc4[nH]c(CN5CCC(CCNC(=O)CCCCCCNc6cccc7c6C(=O)N(C6CCC(=O)NC6=O)C7=O)C5)nc4c3)ccc21 (stereo not shown) [LQ076-98, N-(2-((3-(2-(7-((2-(2,6-dioxopiperidin-3-yl)-1,3-dioxoisoindolin-4-yl)amino)heptanamido)ethyl)pyrrolidin-1-yl)methyl)-1H-benzo[d]imidazol-5-yl)-1-methyl-1H-indazole-5-carboxamide]

reduction of ENL protein levels (ENL [1]; 10 μM, 24 h): effective in reducing ENL protein levels
Structure (SMILES): Cn1ncc2cc(C(=O)Nc3ccc4[nH]c(CN5CCC(CCNC(=O)CCCCCCCNc6cccc7c6C(=O)N(C6CCC(=O)NC6=O)C7=O)C5)nc4c3)ccc21 (stereo not shown) [LQ076-99, N-(2-((3-(2-(8-((2-(2,6-dioxopiperidin-3-yl)-1,3-dioxoisoindolin-4-yl)amino)octanamido)ethyl)pyrrolidin-1-yl)methyl)-1H-benzo[d]imidazol-5-yl)-1-methyl-1H-indazole-5-carboxamide]

reduction of ENL protein levels (ENL [1]; 10 μM, 24 h): effective in reducing ENL protein levels
Structure (SMILES): Cc1ncsc1-c1ccc(CNC(=O)[C@@H]2C[C@@H](O)CN2C(=O)[C@@H](NC(=O)CCCCCCCCNC(=O)c2ccc(C(=O)Nc3ccc4[nH]c(CN5CCC[C@@H]5C)nc4c3)cc2)C(C)(C)C)cc1 [LQ076-120, N^1-(9-(((S)-1-((2S,4R)-4-hydroxy-2-((4-(4-methylthiazol-5-y)benzyl)carbamoyl)pyrrolidin-1-yl)-3,3-dimethyl-1-oxobutan-2-yl)amino)-9-oxononyl)-N^4-(2-(((S)-2-methylpyrrolidin-1-yl)methyl)-1H-benzo[d]imidazol-5-yl)terephthalamide]

reduction of ENL protein levels (ENL [1]; 10 μM, 24 h): effective in reducing ENL protein levels
Structure (SMILES): Cc1ncsc1-c1ccc(CNC(=O)[C@@H]2C[C@@H](O)CN2C(=O)[C@@H](NC(=O)CCCCCCCCCNC(=O)c2ccc(C(=O)Nc3ccc4[nH]c(CN5CCC[C@@H]5C)nc4c3)cc2)C(C)(C)C)cc1 [LQ076-121, N^1-(10-(((S)-1-((2S,4R)-4-hydroxy-2-((4-(4-methylthiazol-5-yl)benzyl)carbamoyl)pyrrolidin-1-yl)-3,3-dimethyl-1-oxobutan-2-yl)amino)-10-oxodecyl)-N^4-(2-(((S)-2-methylpyrrolidin-1-yl)methyl)-1H-benzo[d]imidazol-5-yl)terephthalamide]

reduction of ENL protein levels (ENL [1]; 10 μM, 24 h): effective in reducing ENL protein levels
Structure (SMILES): C[C@H]1CCCN1Cc1nc2cc(NC(=O)c3ccc(C(=O)NCCCCCCCCNc4cccc5c4C(=O)N(C4CCC(=O)NC4=O)C5=O)cc3)ccc2[nH]1 (stereo partly drawn) [LQ076-134, N^1-(8-((2-(2,6-dioxopiperidin-3-yl)-1,3-dioxoisoindolin-4-yl)amino)octyl)-N^4-(2-(((S)-2-methylpyrrolidin-1-yl)methyl)-1H-benzo[d]imidazol-5-yl)terephthalamide]
